According to US7709637B2, “5-phenylpyrimidines, their preparation, intermediates for their preparation, and their use for controlling harmful fungi” (BASF SE, priority 2001, dated 2010):

Assay: Lipophilicity parameter logPow by RP-HPLC run time method (OECD guideline)
Format: physicochemical
Conditions: C18 stationary phase, methanol/buffer pH 7.4, isocratic
Protocol: The lipophilicity parameters logPow (Table I) were determined as specified by OECD directive test guidelines using the RP-HPLC run time method.
To this end, a logk′/logPow correlation curve based on ten reference substances was plotted and validated with the aid of the lipophilicity parameters of eight comparative substances, which had been established by the extraction method.
A commercially available reversed-phase C18 stationary phase was used as stationary phase. Chromatographic separation was carried out with methanol and a buffer solution as mobile phase at pH 7.4 under isocratic conditions.
The retention times of the standards tR were converted in accordance with equation Φ into the capacity factors k′, where t0, as […] of the solvent unretarded on the reversed-phase C18 stationary phase, represents the dead time of the chromatographic system:
The linear correlation of the logk′ values with the logPow values of the standards published in the appendix to the Directive 92/69/EEC yields the correlation curve through linear regression.
The lipophilicity parameters logPow of the analytes were interpolated from the correlation curve of the standards after calculation of the logarithmic capacity logk′.
The validation of the RP-HPLC analytical method described, and of the standards used, is carried out with the aid of eight comparison active compounds, the distribution behavior of which was determined with the aid of the extraction method.
With `CCN(CC)c1nc(-c2cnccn2)nc(Cl)c1-c1c(F)cc(F)cc1F` [I-20] the logPow was “logPow 4.41”. In the case of `CCN(CC)c1nc(-c2cnccn2)nc(Cl)c1-c1c(F)cccc1Cl` [I-14], the logPow was “logPow 4.49”. With `CCN(CC)c1nc(-c2ncccn2)nc(Cl)c1-c1c(F)cccc1Cl` [I-9] the logPow was “logPow 3.86”. With `CC(C)N(C)c1nc(-c2cnccn2)nc(Cl)c1-c1c(F)cc(F)cc1F` [I-21] the logPow was “logPow 4.48”. For `CC(C)Nc1nc(-c2ncccn2)nc(Cl)c1-c1c(F)cc(F)cc1F` [I-11], the logPow was “logPow 3.15”. For `CC(C)(C)CNc1nc(-c2cnccn2)nc(Cl)c1-c1c(F)cc(F)cc1F` [I-22], the logPow was “logPow 4.72”. With `CC(C)Nc1nc(-c2cnccn2)nc(Cl)c1-c1c(F)cc(F)cc1F` [I-18] the logPow was “logPow 4.7”.

Assay: not given
Conditions: not given
With `C[C@H](Nc1nc(-n2ccnc2)nc(Cl)c1-c1c(F)cc(F)cc1F)C(F)(F)F` [I-3, (S)-6-Chloro-4-(2,2,2-trifluoro-1-methylethyl)amino-5-(2,4,6-trifluorophenyl)-2-(1-imidazolyl)pyrimidine] the melting point was 172 to 173 °C. In the case of `C[C@H](Nc1nc(-n2cncn2)nc(Cl)c1-c1c(F)cc(F)cc1F)C(F)(F)F` [I-4, (S)-6-Chloro-4-(2,2,2-trifluoro-1-methylethyl)amino-5-(2,4,6-trifluorophenyl)-2-(1,2,4-triazol-1-yl)pyrimidine], the melting point was 176 to 177 °C. Work on `C[C@H](Nc1nc(-n2cccn2)nc(Cl)c1-c1c(F)cc(F)cc1F)C(F)(F)F` [I-2, (S)-6-Chloro-4-(2,2,2-trifluoro-1-methylethyl)amino-5-(2,4,6-trifluorophenyl)-2-(1-pyrazolyl)pyrimidine] yielded a melting point of 209 °C.
